Biological target: T1, AHR (UniProt P35869)
T1 sequence (P35869 1-848): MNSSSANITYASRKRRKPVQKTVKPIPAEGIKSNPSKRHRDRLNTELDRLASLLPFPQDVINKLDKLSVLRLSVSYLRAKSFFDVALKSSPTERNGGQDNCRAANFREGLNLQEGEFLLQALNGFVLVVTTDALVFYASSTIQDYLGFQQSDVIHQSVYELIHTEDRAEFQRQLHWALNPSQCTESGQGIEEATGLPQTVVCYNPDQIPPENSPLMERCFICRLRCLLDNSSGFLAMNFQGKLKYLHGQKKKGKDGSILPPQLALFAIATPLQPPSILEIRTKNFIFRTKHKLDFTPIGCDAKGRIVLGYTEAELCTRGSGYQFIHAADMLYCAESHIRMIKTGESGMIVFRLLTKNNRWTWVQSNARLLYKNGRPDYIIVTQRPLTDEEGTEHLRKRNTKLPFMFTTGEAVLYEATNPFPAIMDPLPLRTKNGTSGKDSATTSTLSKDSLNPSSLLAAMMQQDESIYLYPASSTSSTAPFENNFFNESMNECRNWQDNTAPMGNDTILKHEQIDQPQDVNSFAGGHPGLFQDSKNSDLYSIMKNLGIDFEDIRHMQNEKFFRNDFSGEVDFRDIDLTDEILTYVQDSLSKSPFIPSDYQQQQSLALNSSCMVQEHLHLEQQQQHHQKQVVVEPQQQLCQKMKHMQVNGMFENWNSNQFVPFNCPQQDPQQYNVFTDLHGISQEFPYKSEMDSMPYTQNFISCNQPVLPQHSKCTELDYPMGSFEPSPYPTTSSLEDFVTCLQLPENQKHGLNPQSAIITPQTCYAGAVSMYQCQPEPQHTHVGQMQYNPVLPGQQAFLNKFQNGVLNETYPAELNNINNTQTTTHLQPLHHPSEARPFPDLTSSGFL
Experiment: DRE-Luciferase Reporter Assay (Alternate Method), Example 1B
Format: cell-based
Conditions: concentration which inhibits half of the luciferase activity induced by AHR activating ligand; DRE-luciferase reporter cell line
Method: AHR binds to Dioxin Responsive Elements (DRE) upstream of genes that it activates. One measure of AHR activity is activation of a reporter gene, such as luciferase, downstream of one or multiple DRE elements. Luciferase activity will reflect activation and inhibition of AHR in the cells expressing his reporter.
Murine Hepa1-6 or Hepa-1c1c7 or other murine cell line with a DRE-luciferase reporter either stably or transiently transfected were plated in media in plates (96-well, 384-well or other plates) and incubated overnight at 37° C. in a C02 incubator or compound and agonist were added at the time of plating. Likewise, human HepG2 or other human cell line with a DRE-luciferase reporter either stably or transiently transfected were plated in media in plates (96-well, 384-well or other plates) and incubated overnight at 37° C. in a C02 incubator or compound and agonist were added at the time of plating.
At the time that cells are plated or following incubation overnight, an AHR activating ligand, such as TCDD, kynurenine, ITE (2-(1H-indole-3-ylcarbonyl)-4-thiazolecarboxylic methyl ester), VAF347, BNF (beta-naphthoflavone), FICZ (6-formylindolo(3,2-b) carbazole or other AHR ligands, was added with or without AHR antagonist.
Cells were incubated for 4, 15 or 24 hours or another time point and then lysed for determination of luciferase activity as a read-out of the AHR activation or inhibition. Luciferase was measured with a commercial kit such as the Promega Luciferase kit or any kit or reagents that provide the luciferin substrate for measuring luciferase activity. The level of luciferase with only activating ligand added was the maximum signal while the luciferase with no ligand was the minimum signal. IC50 values were determined as the concentration which inhibits half of the luciferase activity.

| IC50 [nM] | SMILES |
| --- | --- |
| > 1500 | CC(C)c1cnn2c(N[C@H]3CCc4[nH]c5cccc(O)c5c4C3)nc(-c3cncc(F)c3)nc12 [Compound I-29a, (6S)-6-[[2-(5-Fluoro-3-pyridyl)-8-isopropyl-pyrazolo[1,5-a][1,3,5]triazin-4-yl]amino]-6,7,8,9-tetrahydro-5H-carbazol-4-ol] |
| > 1500 | CC(C)c1cnn2c(N[C@@H]3CCc4[nH]c5cccc(O)c5c4C3)nc(-c3cncc(F)c3)nc12 [Compound I-29b, (6R)-6-[[2-(5-Fluoro-3-pyridyl)-8-isopropyl-pyrazolo[1,5-a][1,3,5]triazin-4-yl]amino]-6,7,8,9-tetrahydro-5H-carbazol-4-ol] |
| 500 to 1000 | Fc1cncc(-c2nc(N[C@@H]3CCc4[nH]c5ccccc5c4C3)n3nc4c(c3n2)CCCC4)c1 [Compound I-30, 2-(5-fluoro-3-pyridyl)-N-[(3R)-2,3,4,9-tetrahydro-1H-carbazol-3-yl]-7,8,9,10-tetrahydro-[1,3,5]triazino[1,2-b]indazol-4-amine] |
| < 500 | Nc1cnn2c(N[C@@H]3CCc4[nH]c5ccccc5c4C3)nc(-c3cncc(F)c3)nc12 [Compound I-31, 2-(5-Fluoro-3-pyridyl)-N4-[(3R)-2,3,4,9-tetrahydro-1H-carbazol-3-yl]pyrazolo[1,5-a][1,3,5]triazine-4,8-diamine] |
| < 500 | C[C@H](N)c1cnn2c(N[C@@H]3CCc4[nH]c5ccccc5c4C3)nc(-c3cncc(F)c3)nc12 [Compound I-32a, (3R)—N-[8-[(1S)-1-Aminoethyl]-2-(5-fluoro-3-pyridyl)pyrazolo[1,5-a][1,3,5]triazin-4-yl]-2,3,4,9-tetrahydro-1H-carbazol-3-amine] |
| < 500 | C[C@@H](N)c1cnn2c(N[C@@H]3CCc4[nH]c5ccccc5c4C3)nc(-c3cncc(F)c3)nc12 [Compound I-32b, (3R)—N-[8-[(1R)-1-aminoethyl]-2-(5-fluoro-3-pyridyl)pyrazolo[1,5-a][1,3,5]triazin-4-yl]-2,3,4,9-tetrahydro-1H-carbazol-3-amine] |
| < 500 | Fc1cncc(-c2nc(N[C@@H]3CCc4[nH]c5ccccc5c4C3)n3nc4c(c3n2)COCC4)c1 [Compound I-33, 2-(5-fluoro-3-pyridyl)-N-[(3R)-2,3,4,9-tetrahydro-1H-carbazol-3-yl]-8,10-dihydro-7H-pyrano[2,3]pyrazolo[2,4-c][1,3,5]triazin-4-amine] |
| > 1500 | CC(C)c1cnn2c(N[C@H]3CCc4[nH]c5ccc(O)cc5c4C3)nc(-c3cncc(F)c3)nc12 [Compound I-34a, (6S)-6-[[2-(5-Fluoro-3-pyridyl)-8-isopropyl-pyrazolo[1,5-a][1,3,5]triazin-4-yl]amino]-6,7,8,9-tetrahydro-5H-carbazol-3-ol] |
| > 1500 | CC(C)c1cnn2c(N[C@@H]3CCc4[nH]c5ccc(O)cc5c4C3)nc(-c3cncc(F)c3)nc12 [Compound I-34b, (6R)-6-[[2-(5-Fluoro-3-pyridyl)-8-isopropyl-pyrazolo[1,5-a][1,3,5]triazin-4-yl]amino]-6,7,8,9-tetrahydro-5H-carbazol-3-ol] |
| 1000 to 1500 | CC(C)c1cnn2c(N[C@@H]3CNc4ccccc4C3)nc(-c3cncc(F)c3)nc12 [Compound I-35a, (3S)—N-[2-(5-Fluoro-3-pyridyl)-8-isopropyl-pyrazolo[1,5-a][1,3,5]triazin-4-yl]-1,2,3,4-tetrahydroquinolin-3-amine] |
| 500 to 1000 | CC(C)c1cnn2c(N[C@H]3CNc4ccccc4C3)nc(-c3cncc(F)c3)nc12 [Compound I-35b, (R)—N-(2-(5-Fluoropyridin-3-yl)-8-isopropylpyrazolo[1,5-a][1,3,5]triazin-4-yl)-1,2,3,4-tetrahydroquinolin-3-amine] |
| > 1500 | CC(C)c1cnn2c(N[C@@H]3CCc4[nH]c(=O)ccc4C3)nc(-c3cncc(F)c3)nc12 [Compound I-36a, (R)-6-((2-(5-Fluoropyridin-3-yl)-8-isopropylpyrazolo[1,5-a][1,3,5]triazin-4-yl)amino)-5,6,7,8-tetrahydroquinolin-2(1H)-one] |
| > 1500 | CC(C)c1cnn2c(N[C@H]3CCc4[nH]c(=O)ccc4C3)nc(-c3cncc(F)c3)nc12 [Compound I-36b, (S)-6-((2-(5-Fluoropyridin-3-yl)-8-isopropylpyrazolo[1,5-a][1,3,5]triazin-4-yl)amino)-5,6,7,8-tetrahydroquinolin-2(1H)-one] |
| 500 to 1000 | CC(C)c1cnn2c(N[C@@H]3CNc4ncccc4C3)nc(-c3cncc(F)c3)nc12 [Compound I-37a, (3S)—N-[2-(5-Fluoro-3-pyridyl)-8-isopropyl-pyrazolo[1,5-a][1,3,5]triazin-4-yl]-1,2,3,4-tetrahydro-1,8-naphthyridin-3-amine] |
| < 500 | CC(C)c1cnn2c(N[C@H]3CNc4ncccc4C3)nc(-c3cncc(F)c3)nc12 [Compound I-37b, (3R)—N-[2-(5-Fluoro-3-pyridyl)-8-isopropyl-pyrazolo[1,5-a][1,3,5]triazin-4-yl]-1,2,3,4-tetrahydro-1,8-naphthyridin-3-amine] |
| < 500 | Fc1cncc(-c2nc(N[C@@H]3CCc4[nH]c5ccccc5c4C3)n3ncc(N4CCOCC4)c3n2)c1 [Compound I-38, (3R)—N-[2-(5-Fluoro-3-pyridyl)-8-morpholino-pyrazolo[1,5-a][1,3,5]triazin-4-yl]-2,3,4,9-tetrahydro-1H-carbazol-3-amine] |
| > 1500 | CC(C)c1cnn2c(NCCCCO)nc(-c3cncc(F)c3)nc12 [Compound I-39, 4-[[2-(5-Fluoro-3-pyridyl)-8-isopropyl-pyrazolo[1,5-a][1,3,5]triazin-4-yl]amino]butan-1-ol] |
| > 1500 | CC(CO)CCNc1nc(-c2cncc(F)c2)nc2c(C(C)C)cnn12 (centres unmarked) [Compound I-40, 4-[[2-(5-Fluoro-3-pyridyl)-8-isopropyl-pyrazolo[1,5-a][1,3,5]triazin-4-yl]amino]-2-methyl-butan-1-ol] |
| < 500 | O[C@H](c1cnn2c(N[C@@H]3CCc4[nH]c5ccccc5c4C3)nc(-c3cncc(F)c3)nc12)C(F)(F)F [Compound I-41a, (1R)-2,2,2-Trifluoro-1-[2-(5-fluoro-3-pyridyl)-4-[[(3R)-2,3,4,9-tetrahydro-1H-carbazol-3-yl]amino]pyrazolo[1,5-a][1,3,5]triazin-8-yl]ethanol] |
| < 500 | O[C@@H](c1cnn2c(N[C@@H]3CCc4[nH]c5ccccc5c4C3)nc(-c3cncc(F)c3)nc12)C(F)(F)F [Compound I-41b, (1S)-2,2,2-trifluoro-1-[2-(5-fluoro-3-pyridyl)-4-[[(3R)-2,3,4,9-tetrahydro-1H-carbazol-3-yl]amino]pyrazolo[1,5-a][1,3,5]triazin-8-yl]ethanol] |
| < 500 | C[C@H](O)c1cnc2c(N[C@@H]3CCc4[nH]c5ccccc5c4C3)nc(-c3cncc(F)c3)nn12 [Compound I-42a, (1S)-1-[2-(5-Fluoro-3-pyridyl)-4-[[(3R)-2,3,4,9-tetrahydro-1H-carbazol-3-yl]amino]imidazo[2,1-f][1,2,4]triazin-7-yl]ethanol] |
| < 500 | C[C@@H](O)c1cnc2c(N[C@@H]3CCc4[nH]c5ccccc5c4C3)nc(-c3cncc(F)c3)nn12 [Compound I-42b, (1R)-1-[2-(5-Fluoro-3-pyridyl)-4-[[(3R)-2,3,4,9-tetrahydro-1H-carbazol-3-yl]amino]imidazo[2,1-f][1,2,4]triazin-7-yl]ethanol] |
| > 1500 | CC(C)c1cnn2c(NCCCO)nc(-c3cncc(F)c3)nc12 [Compound I-43, 3-[[2-(5-Fluoro-3-pyridyl)-8-isopropyl-pyrazolo[1,5-a][1,3,5]triazin-4-yl]amino]propan-1-ol] |

Reference: US20220144839A1, “INDOLE AHR INHIBITORS AND USES THEREOF” (Ikena Oncology, Inc., priority 2018, published 2022)
